Laboratory results taken from ChEMBL document CHEMBL5113380, “Functionalized quinoxalinones as privileged structures with broad-ranging pharmacological activities” (Eur J Med Chem, 2022).
In brackets after ≈: the same amount, converted by molar mass.

Assays:
Homo sapiens [1] = species: Homo sapiens; assay: Binding affinity to estrogen receptor (unknown origin) relative to control
[2] = Aqueous solubility of the compound at pH 7.4; assay type: physicochemical; conditions: buffer
[3] = Metabolic stability in rat liver microsomes assessed as half-life; assay type: ADME, Microsome
[4] = Binding affinity to estrogen receptor (unknown origin); design: species or system Homo sapiens
Homo sapiens [5] = species: Homo sapiens; assay: Binding affinity to Creatine kinase (CK) (unknown origin) relative to control
[6] = Binding affinity to Creatine kinase (CK) (unknown origin); design: species or system Homo sapiens
Trypanosoma brucei = assay: Antitrypanosomal activity against Trypanosoma brucei; assay type: functional, organism-based
[7] = Cytotoxicity against rat myoblast L6 cells; assay type: toxicity, cell-based
[8] = Ratio IC50 for cytotoxicity against rat myoblast L6 cells over IC50 for antitrypanosomal activity against Trypanosoma brucei; assay type: toxicity, cell-based; conditions: read-out: Ratio IC50
RAW264.7 = assay: Anti-inflammatory activity in mouse RAW264.7 cells assessed as inhibition of LPS-induced NO production at 10 uM after 24 hrs by Griess reagent-based assay; assay type: functional; design: scale not given: the % may be the effect or the level left
Mus musculus = assay: Antiinflammatory activity against mouse assessed as reduction in carragenan-induced paw edema at 25 mg/kg,po treated 1 hr prior to carrageenan challenge; assay type: functional; design: scale not given: the % may be the effect or the level left
Rattus norvegicus [9] = assay: Ulcerogenic activity in male albino rat assessed as ulceration at 25 mg/kg, po; assay type: functional
[10] = molecular target: 72 kDa type IV collagenase (Homo sapiens, UniProt P08253); assay: Inhibition of MMP-2 (unknown origin) using succinylated gelatin as substrate incubated for 30 mins and measured by gelatin zymography method
72 kDa type IV collagenase, sequence (P08253 whole entry): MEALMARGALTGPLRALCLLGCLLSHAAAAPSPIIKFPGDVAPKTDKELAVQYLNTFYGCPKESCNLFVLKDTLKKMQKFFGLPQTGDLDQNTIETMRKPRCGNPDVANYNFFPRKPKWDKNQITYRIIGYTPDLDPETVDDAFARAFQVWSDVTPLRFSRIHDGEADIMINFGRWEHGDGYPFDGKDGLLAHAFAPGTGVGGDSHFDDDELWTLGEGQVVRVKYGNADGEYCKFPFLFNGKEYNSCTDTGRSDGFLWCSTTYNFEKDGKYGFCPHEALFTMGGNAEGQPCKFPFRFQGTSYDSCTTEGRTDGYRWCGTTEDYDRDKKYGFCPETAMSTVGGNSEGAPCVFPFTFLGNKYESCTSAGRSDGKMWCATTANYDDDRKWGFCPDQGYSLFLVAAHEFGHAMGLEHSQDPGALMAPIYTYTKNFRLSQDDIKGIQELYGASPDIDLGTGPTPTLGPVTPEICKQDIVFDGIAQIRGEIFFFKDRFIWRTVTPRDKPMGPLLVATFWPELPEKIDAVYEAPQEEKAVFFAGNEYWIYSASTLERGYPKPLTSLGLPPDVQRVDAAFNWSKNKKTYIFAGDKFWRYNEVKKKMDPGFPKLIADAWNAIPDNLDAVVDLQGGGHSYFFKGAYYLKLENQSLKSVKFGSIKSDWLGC

Rattus norvegicus [11] = assay: Antiinflammatory activity in rat model of hind paw edema assessed as paw thickness at 0.9 mg per 100 g of body weight measured after 4 hrs; assay type: functional
HeLa S3 = assay: Cytotoxicity against human HeLa S3 cells; assay type: functional, cell-based
Staphylococcus aureus [12] = assay: Antibacterial activity against methicillin-resistant Staphylococcus aureus; assay type: functional
Staphylococcus aureus [13] = assay: Antibacterial activity against methicillin-sensitive Staphylococcus aureus; assay type: functional
Candida = assay: Antifungal activity against Candida species; assay type: functional
Pseudomonas aeruginosa = assay: Antibacterial activity against Pseudomonas aeruginosa; assay type: functional
NCI-H460 = assay: Antiproliferative activity against human NCI-H460 cells after 72 hrs by MTT assay; assay type: functional, cell-based; conditions: NCI-H460, 72 h
HCT-116 = assay: Antiproliferative activity against human HCT-116 cells after 72 hrs by MTT assay; assay type: functional, cell-based; conditions: HCT-116, 72 h
B16-F10 = assay: Antiproliferative activity against mouse B16-F10 cells after 72 hrs by MTT assay; assay type: functional, cell-based; conditions: B16-F10, 72 h
L02 = assay: Antiproliferative activity against human HL7702 cells after 72 hrs by MTT assay; assay type: functional, cell-based; conditions: L02, 72 h
HeLa 229 = assay: Antiproliferative activity against human HeLa 229 cells after 72 hrs by MTT assay; assay type: functional, cell-based; conditions: HeLa 229, 72 h
[14] = molecular target: Platelet-derived growth factor receptor beta (Homo sapiens, UniProt P09619); assay: Inhibition of PDGFR-beta (unknown origin)
Platelet-derived growth factor receptor beta, sequence (P09619 whole entry): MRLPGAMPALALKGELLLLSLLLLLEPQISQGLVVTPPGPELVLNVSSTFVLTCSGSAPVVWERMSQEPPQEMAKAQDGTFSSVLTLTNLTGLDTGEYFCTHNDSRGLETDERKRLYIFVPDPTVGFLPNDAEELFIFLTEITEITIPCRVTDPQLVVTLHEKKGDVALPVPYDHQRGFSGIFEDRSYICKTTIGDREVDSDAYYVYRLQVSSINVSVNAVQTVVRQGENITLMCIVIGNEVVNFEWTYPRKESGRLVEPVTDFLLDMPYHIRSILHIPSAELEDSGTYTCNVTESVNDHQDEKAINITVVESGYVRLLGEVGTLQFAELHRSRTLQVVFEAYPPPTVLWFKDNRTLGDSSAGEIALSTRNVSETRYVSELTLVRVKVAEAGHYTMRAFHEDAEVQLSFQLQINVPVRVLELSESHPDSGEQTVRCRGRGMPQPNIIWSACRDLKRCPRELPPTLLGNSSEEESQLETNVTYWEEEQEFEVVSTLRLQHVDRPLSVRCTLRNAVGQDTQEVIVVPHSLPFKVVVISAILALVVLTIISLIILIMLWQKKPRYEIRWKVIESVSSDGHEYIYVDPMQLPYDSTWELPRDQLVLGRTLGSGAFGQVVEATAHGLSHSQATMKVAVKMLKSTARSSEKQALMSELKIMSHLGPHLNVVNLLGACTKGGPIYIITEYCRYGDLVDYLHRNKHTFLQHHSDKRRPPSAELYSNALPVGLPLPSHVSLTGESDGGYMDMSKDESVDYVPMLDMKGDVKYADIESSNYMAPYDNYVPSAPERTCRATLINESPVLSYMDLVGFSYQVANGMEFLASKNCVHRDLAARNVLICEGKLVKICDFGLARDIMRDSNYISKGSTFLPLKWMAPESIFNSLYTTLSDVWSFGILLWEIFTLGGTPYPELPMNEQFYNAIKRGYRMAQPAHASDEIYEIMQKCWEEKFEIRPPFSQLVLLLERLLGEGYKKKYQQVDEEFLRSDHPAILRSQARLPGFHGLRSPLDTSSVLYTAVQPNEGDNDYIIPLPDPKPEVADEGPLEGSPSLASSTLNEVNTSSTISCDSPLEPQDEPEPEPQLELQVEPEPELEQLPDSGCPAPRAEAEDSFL

[15] = molecular target: Fibroblast growth factor receptor 1 (Homo sapiens, UniProt P11362); assay: Inhibition of FGFR1 (unknown origin) using ULight-JAK-1 (Tyr1023) peptide as substrate incubated for 90 mins and measured after 1 hr by LANCE Ultra TR-FRET assay
Fibroblast growth factor receptor 1, sequence (P11362 whole entry): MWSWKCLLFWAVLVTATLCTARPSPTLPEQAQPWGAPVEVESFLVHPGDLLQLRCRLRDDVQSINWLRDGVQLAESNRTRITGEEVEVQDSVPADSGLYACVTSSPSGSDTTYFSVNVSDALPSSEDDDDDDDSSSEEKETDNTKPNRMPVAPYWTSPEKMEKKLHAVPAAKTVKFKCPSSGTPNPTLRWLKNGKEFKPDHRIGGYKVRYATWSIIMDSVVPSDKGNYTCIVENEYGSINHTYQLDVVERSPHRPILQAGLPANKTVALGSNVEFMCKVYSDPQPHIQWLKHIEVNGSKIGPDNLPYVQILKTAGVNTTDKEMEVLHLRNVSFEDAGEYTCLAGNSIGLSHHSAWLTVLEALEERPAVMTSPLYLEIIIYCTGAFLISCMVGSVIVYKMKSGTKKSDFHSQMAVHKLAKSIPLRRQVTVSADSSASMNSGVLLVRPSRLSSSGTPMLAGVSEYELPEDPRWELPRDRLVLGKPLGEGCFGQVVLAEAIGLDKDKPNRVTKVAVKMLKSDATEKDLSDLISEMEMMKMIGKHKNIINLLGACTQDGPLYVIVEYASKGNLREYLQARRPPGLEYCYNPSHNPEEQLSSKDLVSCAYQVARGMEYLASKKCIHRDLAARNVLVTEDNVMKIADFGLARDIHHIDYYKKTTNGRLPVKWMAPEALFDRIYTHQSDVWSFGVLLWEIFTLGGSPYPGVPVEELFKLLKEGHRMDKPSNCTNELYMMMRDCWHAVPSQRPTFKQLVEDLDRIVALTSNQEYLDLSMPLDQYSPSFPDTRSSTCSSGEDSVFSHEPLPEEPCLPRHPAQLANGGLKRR

[16] = molecular target: Kappa-type opioid receptor (Homo sapiens, UniProt P41145); assay: Antagonist at KOR expressed in human U2OS cells measured by High content imaging based beta-arrestin translocation assay; assay type: cell-based
Kappa-type opioid receptor, sequence (P41145 whole entry): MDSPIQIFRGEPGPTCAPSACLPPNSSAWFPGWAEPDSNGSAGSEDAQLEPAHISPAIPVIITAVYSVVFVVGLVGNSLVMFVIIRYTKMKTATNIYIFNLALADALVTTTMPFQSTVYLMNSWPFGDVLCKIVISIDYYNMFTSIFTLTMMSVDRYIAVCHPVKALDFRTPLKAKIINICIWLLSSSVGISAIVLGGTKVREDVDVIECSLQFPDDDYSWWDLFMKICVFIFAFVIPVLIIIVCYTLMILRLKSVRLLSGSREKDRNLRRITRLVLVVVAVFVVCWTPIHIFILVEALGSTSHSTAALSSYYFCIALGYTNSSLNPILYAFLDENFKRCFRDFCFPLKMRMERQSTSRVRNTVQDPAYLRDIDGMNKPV

HepG2 [17] = assay: Cell cycle arrest in human HepG2 cells assessed as fold increase in accumulation at G2/M phase; assay type: functional
MCF7 = assay: Antiproliferative activity against human MCF7 cells; assay type: functional, cell-based
[18] = molecular target: Vascular endothelial growth factor receptor 2 (Homo sapiens, UniProt P35968)
Vascular endothelial growth factor receptor 2, sequence (P35968 whole entry): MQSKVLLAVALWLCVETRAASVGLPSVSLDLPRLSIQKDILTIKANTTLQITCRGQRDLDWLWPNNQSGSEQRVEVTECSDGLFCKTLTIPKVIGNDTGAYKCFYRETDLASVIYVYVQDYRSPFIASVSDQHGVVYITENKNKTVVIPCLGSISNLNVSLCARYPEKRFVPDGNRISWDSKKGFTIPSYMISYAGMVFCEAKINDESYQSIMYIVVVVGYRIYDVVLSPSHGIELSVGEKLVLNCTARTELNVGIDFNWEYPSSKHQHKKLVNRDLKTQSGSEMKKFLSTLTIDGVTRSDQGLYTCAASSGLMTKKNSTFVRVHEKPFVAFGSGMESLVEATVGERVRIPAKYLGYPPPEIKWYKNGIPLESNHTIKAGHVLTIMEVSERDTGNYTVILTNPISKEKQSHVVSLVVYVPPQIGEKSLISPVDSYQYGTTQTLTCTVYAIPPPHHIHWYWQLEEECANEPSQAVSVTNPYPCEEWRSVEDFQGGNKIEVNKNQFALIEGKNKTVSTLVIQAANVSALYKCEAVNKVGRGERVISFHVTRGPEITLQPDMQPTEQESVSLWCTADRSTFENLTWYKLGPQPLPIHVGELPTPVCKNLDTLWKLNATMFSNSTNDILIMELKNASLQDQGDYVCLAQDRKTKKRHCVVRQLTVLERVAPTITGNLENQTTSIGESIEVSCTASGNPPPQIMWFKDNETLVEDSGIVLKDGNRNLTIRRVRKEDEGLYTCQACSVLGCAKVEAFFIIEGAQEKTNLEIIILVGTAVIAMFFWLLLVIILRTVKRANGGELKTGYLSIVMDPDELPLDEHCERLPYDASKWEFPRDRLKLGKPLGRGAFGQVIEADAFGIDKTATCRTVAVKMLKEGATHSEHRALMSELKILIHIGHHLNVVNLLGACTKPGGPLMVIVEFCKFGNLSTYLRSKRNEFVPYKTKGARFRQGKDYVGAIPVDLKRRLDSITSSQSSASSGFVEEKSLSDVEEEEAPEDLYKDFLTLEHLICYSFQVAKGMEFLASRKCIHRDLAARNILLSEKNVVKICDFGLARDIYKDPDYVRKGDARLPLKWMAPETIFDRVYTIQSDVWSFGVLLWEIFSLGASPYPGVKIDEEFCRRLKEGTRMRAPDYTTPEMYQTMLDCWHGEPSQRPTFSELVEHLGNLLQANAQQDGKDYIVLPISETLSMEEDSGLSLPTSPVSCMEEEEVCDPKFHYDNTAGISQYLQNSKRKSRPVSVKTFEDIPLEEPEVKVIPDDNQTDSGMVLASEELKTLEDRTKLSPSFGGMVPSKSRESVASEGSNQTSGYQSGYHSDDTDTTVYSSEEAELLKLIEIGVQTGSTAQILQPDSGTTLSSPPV

HepG2 [19] = assay: Induction of apoptosis in human HepG2 cells assessed as fold increase in BAX/BCL-2 protein level; assay type: functional
HepG2 [20] = assay: Antiproliferative activity against human HepG2 cells; assay type: functional, cell-based
HepG2 [21] = assay: Induction of apoptosis in human HepG2 cells assessed as fold increase in caspase-9 protein level; assay type: functional
HepG2 [22] = assay: Induction of apoptosis in human HepG2 cells assessed as fold increase in caspase-3 protein level; assay type: functional
[23] = Displacement of [3H]AMPA from NMDA receptor (unknown origin); assay type: protein-complex assay, Homo sapiens
[24] = molecular target: Glutamate [NMDA] receptor; assay: Displacement of [3H]DCKA from NMDA receptor (unknown origin); assay type: protein-complex assay, Homo sapiens
[25] = molecular target: Glutamate [NMDA] receptor; assay: Displacement of [3H]CGP-39653 from NMDA receptor (unknown origin); assay type: protein-complex assay, Homo sapiens
[26] = molecular target: Glutamate [NMDA] receptor; assay: Displacement of [3H]kainic acid from NMDA receptor (unknown origin); assay type: protein-complex assay, Homo sapiens
[27] = Aqueous solubility of the compound; assay type: physicochemical; conditions: buffer
[28] = molecular target: Glutamate [NMDA] receptor; assay: Displacement of [3H]NMDA from NMDA receptor (unknown origin); assay type: protein-complex assay, Homo sapiens
[29] = molecular target: Glutamate [NMDA] receptor; assay: Displacement of [3H]L-689560 from NMDA receptor (unknown origin); assay type: protein-complex assay, Homo sapiens
Staphylococcus aureus [30] = assay: Antibacterial activity against Staphylococcus aureus; assay type: functional
Escherichia coli = assay: Antibacterial activity against Escherichia coli; assay type: functional
[31] = Antioxidant activity assessed as DPPH radical scavenging activity at 100 uM; assay type: functional
[32] = Inhibition of ALR2 (unknown origin); design: species or system Homo sapiens
[33] = Inhibition of lipid peroxidation at 100 uM by measuring MDA concentration; assay type: functional; design: Activity: scale not given: the % may be the effect or the level left
[34] = Inhibition of lipid peroxidation at 10 uM by measuring MDA concentration; assay type: functional; design: scale not given: the % may be the effect or the level left
[35] = Inhibition of ALR1 (unknown origin) relative to control; design: concentration or dose not given beside the values; conditions: Homo sapiens; concentration not given here
[36] = Antioxidant activity assessed as DPPH radical scavenging activity at 50 uM; assay type: functional
[37] = Antiproliferative activity against human U-87 MG cells; assay type: functional, cell-based, U-87MG ATCC
Klebsiella pneumoniae = assay: Antibacterial activity against Klebsiella pneumoniae; assay type: functional
[38] = test system: Geobacillus stearothermophilus; assay: Antibacterial activity against Bacillus stearothermophilus; assay type: functional
Bacillus subtilis = assay: Antibacterial activity against Bacillus subtilis; assay type: functional
Shigella dysenteriae = assay: Antibacterial activity against Shigella dysenteriae; assay type: functional
Bacillus cereus = assay: Antibacterial activity against Bacillus cereus; assay type: functional
Bacillus anthracis = assay: Antibacterial activity against Bacillus anthracis; assay type: functional
[39] = molecular target: Glutamate receptor ionotropic AMPA (Homo sapiens, UniProt P42261+P42262+P42263+P48058); assay: Antagonist activity at AMPA receptor (unknown origin); assay type: protein-complex assay

CC[C@H]1C(=O)N(CC)c2ccc(F)cc2N1C(=O)c1ccc(O)cc1O
Activity (Homo sapiens [1]): 92% | solubility [2]: > 100 µg/mL | half-life [3]: > 30 min | IC50 [4]: 0.0054 µM | Activity (Homo sapiens [5]): 44% | EC50 [6]: 0.05 µM

CN1CC(=O)N(C)c2cc([N+](=O)[O-])ccc21
IC50 (Trypanosoma brucei): 3.6 µM | IC50 [7]: 78.2 µM | selectivity ratio [8]: 21.6

Cc1cccc(Oc2nn3c(C(N)=O)nnc3c3ccccc23)c1
Activity (RAW264.7): 10.31% | Activity (Mus musculus): 42.81% | Activity (Rattus norvegicus [9]): 20%

Cc1ccc(NC(=O)C(Cc2ccccc2)NC(=O)Cn2c(=O)c(C)nc3ccccc32)cc1 (stereo unspecified)
IC50 [10]: 10.5 µM

O=C(Cc1nc2ccccc2[nH]c1=O)Nn1c(-c2ccc(Cl)cc2)csc1=S
Activity (Rattus norvegicus [11]): 0.45 mm

CCC(C)C1Nc2ccccc2NC1=O (stereo unspecified)
IC50 (HeLa S3): 17.2 µM

COc1ccc2ncc(=O)n(CC[C@H]3OC[C@H](NCc4cc5c(cn4)OCCC5)CO3)c2c1
MIC (Staphylococcus aureus [12]): 32 µg/mL (≈ 70.7 µM) | MIC (Staphylococcus aureus [13]): 8.16 µg/mL (≈ 18 µM)

CCOC(=O)c1nc2ccc(C)cc2[nH]c1=O
MIC (Candida): 250 µg/mL (≈ 1080 µM) | MIC (Pseudomonas aeruginosa): 250 µg/mL (≈ 1080 µM)

Cn1c(=O)c(/C=C/c2ccccn2)nc2ccccc21
IC50 (NCI-H460): 5.78 µM | IC50 (HCT-116): 7.63 µM | IC50 (B16-F10): 6.64 µM | IC50 (L02): 53.7 µM | IC50 (HeLa 229): 14.6 µM | IC50 [14]: > 89.5 µM | IC50 [15]: 26.7 µM

COc1ccc(N2CCN(CCCNC(=O)CN3C(=O)C4CCCN4c4c(C)ccnc43)CC2)cc1 (stereo unspecified)
IC50 [16]: 2.82 µM

O=C(Cn1c(=O)c2nncn2c2ccccc21)Nc1ccc(C(=O)Nc2ccc(Cl)cc2)cc1
fold change (FC) (HepG2 [17]): 2.14 | IC50 (MCF7): 7.2 µM | IC50 [18]: 0.0034 µM | fold change (FC) (HepG2 [19]): 3.81 | IC50 (HepG2 [20]): 4.1 µM | fold change (FC) (HepG2 [21]): 1.82 | fold change (FC) (HepG2 [22]): 1.96

O=C(O)CC1CCc2cc(Br)cc3[nH]c(=O)c(=O)n1c23 (stereo unspecified)
IC50 [23]: 4.6 µM | Ki [24]: 0.0099 µM | IC50 [25]: > 30 µM | IC50 [26]: > 30 µM

CCCn1cnc(Cc2c(Cl)c(Cl)cc3nc(O)c(O)nc23)c1
solubility [27]: > 10000 µg/mL | IC50 [28]: 0.35 µM | IC50 [29]: 0.0044 µM

O=c1[nH]c2cc3cccnc3c(Cl)c2nc1CBr
MIC (Staphylococcus aureus [30]): 31.2 µg/mL (≈ 96.3 µM) | MIC (Escherichia coli): 31.2 µg/mL (≈ 96.3 µM) | MIC (Candida): 31.2 µg/mL (≈ 96.3 µM) | MIC (Pseudomonas aeruginosa): 31.2 µg/mL (≈ 96.3 µM)

O=C(O)Cn1c(=O)c(Oc2cc(O)cc(O)c2)nc2ccc(Cl)cc21
Activity [31]: 91.3% | IC50 [32]: 0.566 µM | Activity [33]: 55.3% | Activity [34]: 26.6% | inhibition [35]: 38.2% | Activity [36]: 83.7%

COc1cc2c(Oc3ccc(NC(=O)c4nc5ccccc5n(C5CCCCC5)c4=O)cc3F)ccnc2cc1OCCCN1CCOCC1
IC50 [37]: 0.81 µM

C/C(=N\Nc1nc2ccccc2[nH]c1=O)c1cc2cc(Cl)ccc2oc1=O
MIC (Klebsiella pneumoniae): 7.8 µg/mL (≈ 20.5 µM) | MIC (Staphylococcus aureus [30]): 15.6 µg/mL (≈ 41 µM) | MIC [38]: 7.8 µg/mL (≈ 20.5 µM) | MIC (Bacillus subtilis): 7.8 µg/mL (≈ 20.5 µM) | MIC (Shigella dysenteriae): 15.6 µg/mL (≈ 41 µM) | MIC (Bacillus cereus): 7.8 µg/mL (≈ 20.5 µM) | MIC (Bacillus anthracis): 7.8 µg/mL (≈ 20.5 µM) | MIC (Escherichia coli): 7.8 µg/mL (≈ 20.5 µM)

Cc1cc2[nH]c(=O)c(=O)n(C[C@H](N)C(=O)O)c2cc1C
EC50 [39]: 290 µM
